Data taken from patent US10884004B2, “Taggable fluorescent probe for calcium ion detection” (The University of Tokyo, priority 2016, dated 2021).

Tests used:
[1] = in vitro Ca2+ titration of the esterase hydrolysate of Compound 14 in Ca2+ buffer (spectrofluorophotometer); assay type: binding; conditions: hydrolysate obtained by esterase treatment; buffer with adjusted Ca2+ concentration (100 mM KCl, 30 mM MOPS)
Description: A 100 μL PBS solution containing Compound 14 (final concentration 80 μM), Pluronic F127 (0.2%), and Esterase Pseudomonas fluorescens (0.42 units/μL) (SIGMA) was prepared and hydrolysis reaction was carried out at 37° C. To follow the time course of the reaction, a part of the sample was taken during the reaction and the fluorescence intensity in 10 mM Ca^2+ buffer was measured with a spectrofluorophotometer (JASCO, FP-6500). When the fluorescence intensity ceased to change almost completely, the reaction was stopped to obtain a hydrolysate of Compound 14.
A free Ca^2+ concentration in a buffer containing 100 mM KCl and 30 mM 3-morpholinopropanesulfonic acid (MOPS) was adjusted using a Ca-ethylene glycol tetraacetic acid (EGTA) system (0-1 μM), a Ca-nitrilotriacetic acid (NTA) system (3.2 μM-794.3 μM), an unbuffered system (CaCl2) (3.2 mM-10 mM). The adjustment of free Ca^2+ concentration in the Ca-EGTA system or in the Ca-NTA system was carried out using the following formula (1). […]
In order to evaluate the chemical characteristics of the synthesized Compound 14, a hydrolysate was obtained by esterase treatment according to the above method, and the fluorescence intensity in a buffer in which the Ca^2+ concentration was adjusted was measured with a spectrofluorophotometer.

[2] = in situ calibration of the labeled probe in fixed, permeabilized HEK 293T/Halo-RimZF-CAAX; assay type: cell-based; conditions: probe labeled on HEK 293T/Halo-RimZF-CAAX, 4% PFA fixed, 20 μM digitonin
Description: (§1) HEK 293T cells were seeded in metal rings on a cover glass coated with 0.01% collagen and 25 μg/ml poly-L-lysine (nacalai tesque) 16 hours after gene transfer so that the number of cells per ring was 40,000 and cultured at 37° C. and a carbon dioxide concentration of 5%. Three and a half hours later, the extracellular fluid was replaced with Ringer's solution (5 mM HEPES, 150 mM NaCl, 4 mM KCl, 2 mM CaCl2, 1 mM MgCl2, 0.1% glucose, pH 7.2) containing a Ca^2+ probe (compound 14 or Calcium Green, AM (Invitrogen)) or a fluorescent ligand (halo TMR, halo Oregon) (final concentration 5 μM) and 0.02% Plulonic F127 and left to stand at room temperature for 30 minutes while being shielded from light. The cells labeled with compound 14 and the fluorescent ligand was then exchanged with serum-free DMEM, removal of probes that were liberated at 5% carbon dioxide concentration and 37° C. was carried out for 30 minutes, and the extracellular solution was exchanged again with Ringer's solution. […]
The labeled HEK 293T/Halo-RimZF-CAAX was immobilized with 4% PFA/PBS for 10 minutes, subjected to membrane permeabilization with 20 μM digitonin, and a change in fluorescence when the Ca^2+ concentration of the extracellular solution was changed was measured.
Next, Ca^2+ response characteristics of the labeled probe were evaluated by in situ calibration.

[3] = system: HEK 293T/Halo-RimZF-CAAX; assay: Ca2+ imaging on ionomycin stimulation of probe-labeled HEK 293T/Halo-RimZF-CAAX; assay type: cell-based; conditions: ionomycin (10 μM); local Ca2+ signal on the cell membrane
Description: as §1, with “light.” for “light. The cells labeled with compound 14 and the fluorescent ligand was then exchanged with serum-free DMEM, removal of probes that were liberated at 5% carbon dioxide concentration and 37° C. was carried out for 30 minutes, and the extracellular solution was exchanged again with Ringer's solution.”
(§2) Fluorescence images were acquired using an inverted microscope (IX-71, Olympus), an EM-CCD camera (Andor, iXon), an objective lens ([…]), and a filter set for RFP. […]
In addition, ionomycin was added to a probe-labeled HEK 293T/Halo-RimZF-CAAX in order to see the response characteristics to the Ca^2+ signal induced by the ionophore, and then changes with time of the fluorescence intensity were measured (FIG. 5). […]

[4] = system: HEK 293T/Halo-RimZF-CAAX; assay: staining / localization in HEK 293T cells expressing HaloTag protein on the cell membrane; assay type: cell-based; conditions: 5 μM probe, Ringer's solution, 30 minutes, room temperature
Description: (§3) HEK 293T cells (GenHunter) were cultured in Dulbecco's Modified Eagle's Medium (DMEM) (Wako) containing 10% FBS, 4 mM L-glutamine (Wako), and 1 mM sodium pyruvate (Wako) at 37° C. in an atmosphere of 5% CO2. For nerve cells, a fetus was removed from Sprague-Dawley rat on day 21 of pregnancy under anesthesia, and the hippocampus immediately extracted from the fetal brain was digested with trypsin (Invitrogen) and DNase I (Sigma) to separate nerve cells. The nerve cells were cultured on a monolayer of glial cells in a Neurobasal A medium (Invitrogen) containing 2% B-27 supplement (Invitrogen), 1 mM sodium pyruvate (Wako), 1% glutamax (Invitrogen), 1% penicillin-streptomycin mixed solution (nacalai tesque) at 37° C. in an atmosphere of 5% CO2.
Next, a DNA fragment encoding HaloTag and a DNA fragment encoding RimZF were fused by PCR. At this time, a DNA fragment expressing a fusion protein of HaloTag, RimZF, and CAAX motif was obtained by adding a DNA sequence encoding a CAAX motif of the KRas gene (KMSKDGKKKKKKSKTKC-VIM) to the primer. […]
as §2

[5] = system: Rat hippocampus-derived nerve cells; assay: Ca2+ imaging on electrical stimulation of probe-labeled hippocampus-derived nerve cells; assay type: cell-based; conditions: electrical stimulation 10 times at 100 Hz; HaloTag fusion protein expressed in nerve cells
Description: as §3
A DNA fragment obtained by fusing a sequence encoding a HaloTag protein in series on the C-terminal side of the DNA sequence encoding the vesicular membrane […] transporter (VGLUT1) was subcloned into a lentiviral vector (pLenti6PW) to prepare pLenti vglut1-chalo. […]
as §2

CC(=O)OCOC(=O)COc1cc(NC(=O)c2ccc3c(c2)C(=O)OC32c3cc(Cl)c(OC(C)=O)cc3Oc3cc(N4CC(C(=O)NCCOCCOCCCCCCCl)C4)c(Cl)cc32)ccc1N(CC(=O)OCOC(C)=O)CC(=O)OCOC(C)=O (centres unmarked) [Compound 14, bis(acetoxymethyl) 2,2′-((4-(3′-acetoxy-2′,7′-dichloro-6′-(3-((2-(2-((6-chlorohexyl)oxy)ethoxy)ethyl)carbamoyl)azetidin-1-yl)-3-oxo-3H-spiro[isobenzofuran-1,9′-xanthene]-5-carboxylic acid amido)-2-(2-(acetoxymethoxy)-2-oxoethoxy)phenyl)azanediyl) diacetate]
Fmax/Fmin (fluorescence intensity of Ca2+-bound vs unbound probe) [1]: 10.8 | Fmax/Fmin [2]: 4.7 | change in fluorescence intensity due to ionomycin stimulation [3]: increased the fluorescence intensity | localization of fluorescence after staining [4]: fluorescence localized on the cell membrane on which the HaloTag protein is expressed was observed | Ca2+ signal change on electrical stimulation [5]: a Ca^2+ signal change corresponding to the stimulus was observed
